Publication PMC7673538 (PLoS Biology, 2020)
Values joined by “and” are separate entries in the source; they are usually repeats but may differ in a detail not shown here. Equal values may be shown once. Read-outs that look alike come from different tables or passages of the source.

What was measured:
[1] = tested on: HRV-B14; assay: microbe, parasite or virus in culture; type: cell-based, human rhinovirus
[2] = tested on: CV-A24 (strain Joseph); type: cell-based, coxsackievirus A24; conditions: compound concentration 1 µM
[3] = in vitro; conditions: monkey
[4] = tested on: CV-B3; assay: microbe, parasite or virus in culture; type: cell-based, coxsackievirus B3; conditions: Enterovirus B
[5] = in vitro; conditions: human
[6] = tested on: EV-D68; assay: microbe, parasite or virus in culture; type: cell-based, enterovirus D68; conditions: for EC50: Enterovirus D
[7] = tested on: EV-A71 (strain BrCr); type: cell-based, enterovirus A71
[8] = tested on: EV-A71; assay: microbe, parasite or virus in culture; type: cell-based, enterovirus A71; conditions: for EC50: Enterovirus A

Q: For `COc1ccc(N(Cc2ccc(F)cc2)C(=O)c2ccco2)cc1` [Compound 1, N-(4-fluorobenzyl)-N-(4-methoxyphenyl)furan-2-carboxamide], which “inhibition of HRV-B14 replication (in words)” value [1] is on record?
A: antiviral activity

Q: And the “Figure 7 dose-response raw data, HRV_B14 (triplicate values)” value (shortened to “Figure 7 dose-response raw data, HRV_B14”) ([1]; Concentration 0.0046 µM)?
A: 15.2266 and 14.5606

Q: And the “Figure 7 dose-response raw data, HRV_B14” value ([1]; Concentration 0.0137 µM)?
A: 15.2266 and 14.5606

Q: And the “Figure 7 dose-response raw data, HRV_B14” value ([1]; Concentration 0.0412 µM)?
A: 15.2266 and 14.5606 and 20.943

Q: And the “Figure 7 dose-response raw data, HRV_B14” value ([1]; Concentration 0.3704 µM)?
A: 23.8668 and 30.9898 and 27.193

Q: What about the “Figure 7 dose-response raw data, HRV_B14” value ([1]; Concentration 1.1111 µM) of the same compound?
A: 29.6577 and 30.8788 and 30.9898

Q: And the “Figure 7 dose-response raw data, HRV_B14” value ([1]; Concentration 3.3333 µM)?
A: 15.2266 and 14.5606

Q: And the “Figure 7 dose-response raw data, HRV_B14” value ([1]; Concentration 11.1111 µM)?
A: 71.9426 and 62.9417 and 74.4773

Q: And the “Figure 7 dose-response raw data, HRV_B14” value ([1]; Concentration 33.3333 µM)?
A: 100.034 and 89.1582 and 86.605

Q: What about the “Figure 7 dose-response raw data, HRV_B14” value ([1]; Concentration 100 µM) of the same compound?
A: 104.147 and 89.1582 and 86.605

Q: And the EC50 ([1]; Human rhinovirus sp., HRVB14, HeLa R19, read-out: EC50 Exp1)?
A: 10.8 µM

Q: And the EC50 ([1]; Human rhinovirus sp., HRVB14, HeLa R19, read-out: EC50 Exp2)?
A: 13.9 µM

Q: What about the EC50 ([1]; Human rhinovirus sp., HRVB14, HeLa R19, read-out: EC50 HRV-B14) of the same compound?
A: 10.8 ± 1.27 µM

Q: What about the EC50 ([1]; Human rhinovirus sp., HRVB14, HeLa R19, read-out: EC50 HRV-B14 Experiement 3) of the same compound?
A: 11.1 µM

Q: What about the EC50 ([1]; Human rhinovirus sp., HRVB14, HeLa R19, read-out: EC50 HRV-B14 Experiment 1) of the same compound?
A: 12.2 µM

Q: And the EC50 ([1]; Human rhinovirus sp., HRVB14, HeLa R19, read-out: EC50 HRV-B14 Experiment 2)?
A: 9.16 µM

Q: What about the EC50 ([1]; read-out: EC50 HRV-B14) of the same compound?
A: 12.4 ± 1.51 µM

Q: What about the “virus titer, TCID50/ml (Figure 2A)” value [2] of the same compound?
A: 100000 TCID50/ml and 169824 TCID50/ml and 162341 TCID50/ml

Q: What about the CC50 ([3]; CC50) of the same compound?
A: 50.65 ± 0.32 µM

Q: And the CC50 ([3]; CC50 BGM Average)?
A: 50.6 µM

Q: What about the CC50 ([3]; Exp 1 CC50 BGM) of the same compound?
A: 51 µM

Q: And the CC50 ([3]; Exp 2 CC50 BGM)?
A: 50.3 µM

Q: What about the EC50 ([4]; CVB3, HAP1, read-out: EC50 Hap1 Average) of the same compound?
A: 1570 nM

Q: What about the EC50 ([4]; CVB3, HAP1, read-out: Exp 1 EC50 Hap1) of the same compound?
A: 1490 nM

Q: And the EC50 ([4]; CVB3, HAP1, read-out: Exp 2 EC50 Hap1)?
A: 1650 nM

Q: What about the CC50 ([5]; CC50 Hap1 Average) of the same compound?
A: 45.6 µM

Q: What about the CC50 ([5]; Exp 1 CC50 Hap1) of the same compound?
A: 45.1 µM

Q: And the CC50 ([5]; Exp 2 CC50 Hap1)?
A: 46.1 µM

Q: What about the “inhibition of EV-D68 replication (in words)” value [6] of the same compound?
A: antiviral activity

Q: What about the “Figure 7 dose-response raw data, EV-D68 (triplicate values)” value (“Figure 7 dose-response raw data, EV-D68” below) ([6]; Concentration 0.001 µM) of the same compound?
A: 8.529 and 8.161 and 15.8928

Q: And the “Figure 7 dose-response raw data, EV-D68” value ([6]; Concentration 0.0412 µM)?
A: 9.388 and 8.898 and 11.4747

Q: And the “Figure 7 dose-response raw data, EV-D68” value ([6]; Concentration 0.1235 µM)?
A: 8.529 and 8.161 and 15.8928

Q: And the “Figure 7 dose-response raw data, EV-D68” value ([6]; Concentration 0.3704 µM)?
A: 8.529 and 8.161 and 15.8928

Q: What about the “Figure 7 dose-response raw data, EV-D68” value ([6]; Concentration 1.1111 µM) of the same compound?
A: 105.527 and 109.089 and 109.58

Q: And the “Figure 7 dose-response raw data, EV-D68” value ([6]; Concentration 3.3333 µM)?
A: 104.422 and 100.246 and 109.335

Q: What about the “Figure 7 dose-response raw data, EV-D68” value ([6]; Concentration 10 µM) of the same compound?
A: 100.368 and 102.702 and 104.422

Q: And the EC50 ([6]; EVD68, HeLa R19, read-out: EC50 EV-D68 Experiement 3)?
A: 310 nM

Q: And the EC50 ([6]; EVD68, HeLa R19, read-out: EC50 EV-D68 Experiment 1)?
A: 250 nM

Q: And the EC50 ([6]; EVD68, HeLa R19, read-out: EC50 EV-D68 Experiment 2)?
A: 390 nM

Q: And the EC50 ([6]; EVD68, HeLa R19, read-out: EC50 EV-D68 strain 4310900947)?
A: 3650 ± 340 nM

Q: What about the EC50 ([6]; EVD68, HeLa R19, read-out: EC50 EV-D68 strain 4310901348) of the same compound?
A: 4470 ± 130 nM

Q: What about the EC50 ([6]; EVD68, HeLa R19, read-out: EC50 EV-D68 strain 4310902042) of the same compound?
A: 4050 ± 650 nM

Q: What about the EC50 ([6]; EVD68, HeLa R19, read-out: EC50 EV-D68 strain 4310902284) of the same compound?
A: 2230 ± 120 nM

Q: What about the EC50 ([6]; EVD68, HeLa R19, read-out: EC50 EV-D68 strain 4311000742) of the same compound?
A: 3830 ± 400 nM

Q: What about the EC50 ([6]; EVD68, HeLa R19, read-out: EC50 Exp2) of the same compound?
A: 1950 nM

Q: And the “virus titer, TCID50/ml (Figure 2A)” value ([7]; compound concentration 0.001 µM)?
A: 316228 TCID50/ml

Q: What about the “virus titer, TCID50/ml (Figure 2A)” value ([7]; compound concentration 0.01 µM) of the same compound?
A: 316228 TCID50/ml

Q: And the “virus titer, TCID50/ml (Figure 2A)” value ([7]; compound concentration 0.1 µM)?
A: 316228 TCID50/ml

Q: And the “virus titer, TCID50/ml (Figure 2A)” value ([7]; compound concentration 0.3 µM)?
A: 316228 TCID50/ml

Q: And the “Figure 7 dose-response raw data, EV-A71 (triplicate values)” value (shortened to “Figure 7 dose-response raw data, EV-A71”) ([8]; Concentration 0.0046 µM)?
A: 12.0987 and 12.2161 and 13.2733

Q: And the “Figure 7 dose-response raw data, EV-A71” value ([8]; Concentration 0.0137 µM)?
A: 11.5913 and 20.0727 and 21.6478

Q: And the “Figure 7 dose-response raw data, EV-A71” value ([8]; Concentration 0.0412 µM)?
A: 13.4087 and 20.6785 and 25.0404

Q: And the “Figure 7 dose-response raw data, EV-A71” value ([8]; Concentration 0.1235 µM)?
A: 12.0987 and 12.2161 and 13.2733

Q: What about the “Figure 7 dose-response raw data, EV-A71” value ([8]; Concentration 0.3704 µM) of the same compound?
A: 11.5913 and 20.0727 and 21.6478

Q: What about the “Figure 7 dose-response raw data, EV-A71” value ([8]; Concentration 1.1111 µM) of the same compound?
A: 13.4087 and 20.6785 and 25.0404

Q: And the “Figure 7 dose-response raw data, EV-A71” value ([8]; Concentration 3.3333 µM)?
A: 12.0987 and 12.2161 and 13.2733

Q: And the “Figure 7 dose-response raw data, EV-A71” value ([8]; Concentration 11.1111 µM)?
A: 11.5913 and 20.0727 and 21.6478

Q: And the “Figure 7 dose-response raw data, EV-A71” value ([8]; Concentration 33.3333 µM)?
A: 13.4087 and 20.6785 and 25.0404

Q: And the “Figure 7 dose-response raw data, EV-A71” value ([8]; Concentration 100 µM)?
A: 11.5913 and 20.0727 and 21.6478

Q: And the EC50 ([8]; EVA71, HeLa R19, read-out: EC50 EV-A71)?
A: > 30 µM

Q: And the EC50 ([8]; EVA71, HeLa R19, read-out: EC50 EV-A71 Average)?
A: > 30 µM

Q: And the EC50 ([8]; EVA71, HeLa R19, read-out: EC50 EV-A71 Experiement 3)?
A: > 30 µM
